Laboratory results as given in ChEMBL document CHEMBL5236544, “Furazans in Medicinal Chemistry” (J Med Chem, 2021).
pEC50, pIC50, pKi: −log10 of the molar value. ≈ marks a conversion by molar mass, not a printed value. Where “and” joins values, the source holds several entries; their conditions need not be identical. Equal entries are not always repeated.

Assays:
[1] = test system: SK-OV-3; experiment: Antitumor activity against human SK-OV-3 cells in xenografted mouse model assessed as reduction in tumor growth at 30 mg/kg, ip administered daily for 21 days relative to control; assay type: functional; design: scale not given: the % may be the effect or the level left; conditions: time 21 day
[2] = test system: LNCaP; experiment: Antitumor activity against human LNCaP cells in xenografted mouse model assessed as reduction in tumor growth at 30 mg/kg, ip administered daily for 21 days relative to control; assay type: functional; design: scale not given: the % may be the effect or the level left; conditions: time 21 day
[3] = test system: HCC1954; experiment: Antitumor activity against human HCC1954 cells in xenografted mouse model assessed as reduction in tumor growth at 30 mg/kg, ip administered daily for 21 days relative to control; assay type: functional; design: scale not given: the % may be the effect or the level left; conditions: time 21 day
[4] = test system: PANC-1; experiment: Antitumor activity against human PANC-1 cells in xenografted mouse model assessed as reduction in tumor growth at 30 mg/kg, ip administered daily for 21 days relative to control; assay type: functional; design: scale not given: the % may be the effect or the level left; conditions: time 21 day
[5] = test system: MDA-MB-453; experiment: Antitumor activity against human MDA-MB-453 cells in xenografted mouse model assessed as reduction in tumor growth at 30 mg/kg, ip administered daily for 21 days relative to control; assay type: functional; design: scale not given: the % may be the effect or the level left; conditions: time 21 day
[6] = test system: BT-474; experiment: Antitumor activity against human BT-474 cells in xenografted mouse model assessed as reduction in tumor growth at 30 mg/kg, ip administered daily for 21 days relative to control; assay type: functional; design: scale not given: the % may be the effect or the level left; conditions: time 21 day
[7] = target: Ribosomal protein S6 kinase beta-1 (Homo sapiens, UniProt P23443); experiment: Inhibition of p70S6 (unknown origin) […]
[8] = Inhibition of human recombinant LDH
[9] = Cmax in mouse at 100 mg/kg, po; assay type: ADME, organism-based; design: dose 100 mg/kg, route po; conditions: in vivo
[10] = Binding affinity to Plasmodium falciparum LDH assessed as inhibitory constant
[11] = test system: Plasmodium falciparum; experiment: Antimalarial activity against Plasmodium falciparum assessed as parasitic reduction at 10 mg/kg of chloroquine relative to control; assay type: functional; design: scale not given: the % may be the effect or the level left
[12] = test system: HeLa; experiment: Antitumor activity against human HeLa cells assessed as reduction in cell viability; assay type: functional, cell-based
[13] = Half life in mouse at 10 mg/kg, po; assay type: ADME, organism-based; conditions: in vivo
[14] = Half life in mouse at 10 mg/kg, ip; assay type: ADME, organism-based; conditions: in vivo
[15] = target: Lactate dehydrogenase (Plasmodium falciparum, UniProt Q0PJ46); experiment: Inhibition of recombinant Plasmodium falciparum LDH
[16] = test system: Plasmodium falciparum; experiment: Antimalarial activity against drug resistant Plasmodium falciparum KI; assay type: functional, organism-based
[17] = test system: Plasmodium falciparum; experiment: Antimalarial activity against drug sensitive Plasmodium falciparum 3D7; assay type: functional, organism-based
[18] = test system: Plasmodium falciparum; experiment: Antimalarial activity against Plasmodium falciparum assessed as parasitic reduction at 100 mg/kg relative to control; assay type: functional; design: scale not given: the % may be the effect or the level left
[19] = Cmax in mouse at 100 mg/kg, ip; assay type: ADME, organism-based; design: dose 100 mg/kg, route ip; conditions: in vivo
[20] = test system: KB; experiment: Antitumor activity against human KB cells assessed as reduction in cell viability; assay type: functional, cell-based
[21] = test system: HeLa; experiment: Antiproliferative activity against human HeLa cells assessed as reduction in cell viability by MTT assay; assay type: functional, cell-based
[22] = Antiproliferative activity against mouse Lewis lung carcinoma cell line cells assessed as inhibition of cell proliferation by MTT assay; assay type: functional, cell-based
[23] = target: Indoleamine 2,3-dioxygenase 1 (Homo sapiens, UniProt P14902); experiment: Inhibition of IDO1 (unknown origin)
[24] = test system: HCT-116; experiment: Antiproliferative activity against human HCT-116 cells assessed as inhibition of cell proliferation by MTT assay; assay type: functional, cell-based
[25] = test system: HCT-116; experiment: Antitumor activity against human HCT-116 cells xenografted in mouse model assessed as reduction in tumor growth at 100 mg/kg bid relative to control; assay type: functional; design: scale not given: the % may be the effect or the level left
[26] = test system: HeLa; experiment: Antiproliferative activity against human HeLa cells assessed as cell growth inhibition; assay type: functional, cell-based
[27] = test system: Streptococcus pneumoniae; experiment: Antibiofilm activity against Streptococcus pneumoniae reduction in biofilm formation in the presence of tobramycin at 13 uM relative to control; assay type: functional; design: scale not given: the % may be the effect or the level left
[28] = test system: Streptococcus pneumoniae; experiment: Antibacterial activity against Streptococcus pneumoniae assessed as reduction in bacterial growth incubated for 1 hrs in presence of tobramycin by colony-counting method; assay type: functional
[29] = test system: Staphylococcus aureus; experiment: Antibiofilm activity against Staphylococcus aureus reduction in biofilm formation in the presence of azithromycin at 63 uM relative to control; assay type: functional; design: scale not given: the % may be the effect or the level left
[30] = test system: Streptococcus pneumoniae; experiment: Antibacterial activity against Streptococcus pneumoniae assessed as reduction in bacterial growth by broth microdilution method; assay type: functional
[31] = test system: Staphylococcus aureus; experiment: Antibiofilm activity against Staphylococcus aureus reduction in biofilm formation at 63 uM relative to control; assay type: functional; design: scale not given: the % may be the effect or the level left
[32] = test system: Staphylococcus aureus; experiment: Antibacterial activity against Staphylococcus aureus assessed as reduction in bacterial growth incubated for 1 hrs in presence of azithromycin by colony-counting method; assay type: functional
[33] = test system: Streptococcus pneumoniae; experiment: Antibiofilm activity against Streptococcus pneumoniae reduction in biofilm formation at 63 uM relative to control; assay type: functional; design: scale not given: the % may be the effect or the level left
[34] = test system: Staphylococcus aureus; experiment: Antibacterial activity against Staphylococcus aureus assessed as reduction in bacterial growth by broth microdilution method; assay type: functional
[35] = test system: A549; experiment: Antitumor activity against human A549 cells xenografted in mouse model assessed as reduction in tumor growth at 100 mg/kg bid relative to control; assay type: functional; design: scale not given: the % may be the effect or the level left
[36] = test system: A549; experiment: Antiproliferative activity against human A549 cells assessed as inhibition of cell proliferation by MTT assay; assay type: functional, cell-based
[37] = Half life in rat, iv; assay type: ADME; conditions: in vivo
[38] = target: Histone deacetylase; experiment: Inhibition of HDAC (unknown origin); assay type: protein assay, Homo sapiens
[39] = in vitro; conditions: human, liver microsomes, po, 10 mg/kg
Description: Half life in human liver microsomes at 10 mg/kg, po

[40] = physchem; conditions: octanol/water
Description: Lipophilicity, log P of the compound

[41] = test system: MCF7; experiment: cells; assay type: functional, cell-based; conditions: Homo sapiens, MCF7, 24 h
Description: Antiproliferative activity against human MCF7 assessed as reduction in cell viability incubated for 24 hrs by MTT assay

[42] = physchem; conditions: PBS, pH 7.4
Description: Solubility of the compound in PBS at pH 7.4

[43] = test system: SK-OV-3; experiment: Antiproliferative activity against human SK-OV-3 cells assessed as inhibition of cell proliferation by MTT assay; assay type: functional, cell-based
[44] = test system: SK-OV-3; experiment: Antitumor activity against human SK-OV-3 cells xenografted in mouse model assessed as reduction in tumor growth at 100 mg/kg bid relative to control; assay type: functional; design: scale not given: the % may be the effect or the level left
[45] = Half life in human liver microsomes; assay type: ADME
[46] = test system: Helicobacter pylori; experiment: Antibacterial activity against Helicobacter pylori SS1 assessed as reduction in bacterial growth incubated for 1 hrs in presence of metronidazole by colony-counting method; assay type: functional
[47] = test system: Helicobacter pylori; experiment: Antibacterial activity against Helicobacter pylori NCTC11637 assessed as reduction in bacterial growth incubated for 1 hrs in presence of metronidazole-resistant by colony-counting method; assay type: functional
[48] = test system: Helicobacter pylori; experiment: Antibacterial activity against Helicobacter pylori NCTC11637 assessed as reduction in bacterial growth incubated for 1 hrs in presence of metronidazole by colony-counting method; assay type: functional
[49] = test system: Helicobacter pylori; experiment: Antibacterial activity against Helicobacter pylori SS1 assessed as reduction in bacterial growth in the presence of metronidazole-sensitive by broth microdilution method; assay type: functional
[50] = test system: Mus musculus; experiment: In vivo antibacterial activity against Helicobacter pylori SS1 infected mouse model assessed as reduction in infection at 200 mg/kg, po administered for 8 days relative to control; assay type: functional; design: scale not given: the % may be the effect or the level left; conditions: time 8 day
[51] = test system: HEK-293T; experiment: Antiproliferative activity against human HEK293T cells assessed as inhibition of cell proliferation by MTT assay; assay type: functional, cell-based
[52] = Half life in mouse; assay type: ADME, organism-based; conditions: in vivo
[53] = test system: HEK-293T; experiment: Antitumor activity against human HEK293T cells xenografted in mouse model assessed as reduction in tumor growth at 100 mg/kg bid relative to control; assay type: functional; design: scale not given: the % may be the effect or the level left
[54] = target: Cyclin-dependent kinase 2 (Homo sapiens, UniProt P24941); experiment: Inhibition of CDK-2 (unknown origin)
[55] = test system: CHO; experiment: Antiproliferative activity against CHO cells assessed as reduction in cell proliferation by MTT assay; assay type: functional, cell-based; conditions: Cricetulus griseus
[56] = target: Insulin-like growth factor 1 receptor (Homo sapiens, UniProt P08069); experiment: Inhibition of IGF-1R (unknown origin)
[57] = target: Epidermal growth factor receptor (Homo sapiens, UniProt P00533); experiment: Inhibition of EGF-R (unknown origin)
[58] = target: Proto-oncogene tyrosine-protein kinase Src (Homo sapiens, UniProt P12931); experiment: Inhibition SRC (unknown origin)
[59] = target: Vascular endothelial growth factor receptor 2 (Homo sapiens, UniProt P35968); experiment: Inhibition of VEGF-R2 (unknown origin)
[60] = target: Aurora kinase B (Homo sapiens, UniProt Q96GD4); experiment: Inhibition of Aurora B (unknown origin)
Chain of Aurora kinase B (Q96GD4 whole entry): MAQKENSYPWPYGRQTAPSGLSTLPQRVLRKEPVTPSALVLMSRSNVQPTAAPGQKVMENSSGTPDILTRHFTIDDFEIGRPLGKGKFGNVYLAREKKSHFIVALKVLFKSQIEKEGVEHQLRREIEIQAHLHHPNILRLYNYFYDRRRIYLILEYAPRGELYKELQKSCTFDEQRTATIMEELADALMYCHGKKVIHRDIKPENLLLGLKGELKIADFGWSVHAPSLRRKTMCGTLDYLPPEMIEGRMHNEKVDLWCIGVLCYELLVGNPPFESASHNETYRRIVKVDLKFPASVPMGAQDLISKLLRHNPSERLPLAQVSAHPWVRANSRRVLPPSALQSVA

Chain of Proto-oncogene tyrosine-protein kinase Src (P12931 2-536 limits assumed): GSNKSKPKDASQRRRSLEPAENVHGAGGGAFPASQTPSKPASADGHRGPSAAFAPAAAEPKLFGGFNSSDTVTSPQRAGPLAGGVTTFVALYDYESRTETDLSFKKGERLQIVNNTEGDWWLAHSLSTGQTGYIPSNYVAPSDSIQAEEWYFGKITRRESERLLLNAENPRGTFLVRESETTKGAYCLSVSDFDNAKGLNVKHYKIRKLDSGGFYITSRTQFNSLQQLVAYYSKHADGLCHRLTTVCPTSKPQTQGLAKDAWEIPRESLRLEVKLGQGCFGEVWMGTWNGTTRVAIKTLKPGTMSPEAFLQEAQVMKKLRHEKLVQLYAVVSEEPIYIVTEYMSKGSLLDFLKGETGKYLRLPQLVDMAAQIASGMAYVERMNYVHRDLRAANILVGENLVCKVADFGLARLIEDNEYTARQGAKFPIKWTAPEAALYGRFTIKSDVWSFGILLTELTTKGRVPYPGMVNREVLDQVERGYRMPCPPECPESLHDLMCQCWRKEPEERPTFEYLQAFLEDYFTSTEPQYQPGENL
Chain of Epidermal growth factor receptor (P00533 whole entry): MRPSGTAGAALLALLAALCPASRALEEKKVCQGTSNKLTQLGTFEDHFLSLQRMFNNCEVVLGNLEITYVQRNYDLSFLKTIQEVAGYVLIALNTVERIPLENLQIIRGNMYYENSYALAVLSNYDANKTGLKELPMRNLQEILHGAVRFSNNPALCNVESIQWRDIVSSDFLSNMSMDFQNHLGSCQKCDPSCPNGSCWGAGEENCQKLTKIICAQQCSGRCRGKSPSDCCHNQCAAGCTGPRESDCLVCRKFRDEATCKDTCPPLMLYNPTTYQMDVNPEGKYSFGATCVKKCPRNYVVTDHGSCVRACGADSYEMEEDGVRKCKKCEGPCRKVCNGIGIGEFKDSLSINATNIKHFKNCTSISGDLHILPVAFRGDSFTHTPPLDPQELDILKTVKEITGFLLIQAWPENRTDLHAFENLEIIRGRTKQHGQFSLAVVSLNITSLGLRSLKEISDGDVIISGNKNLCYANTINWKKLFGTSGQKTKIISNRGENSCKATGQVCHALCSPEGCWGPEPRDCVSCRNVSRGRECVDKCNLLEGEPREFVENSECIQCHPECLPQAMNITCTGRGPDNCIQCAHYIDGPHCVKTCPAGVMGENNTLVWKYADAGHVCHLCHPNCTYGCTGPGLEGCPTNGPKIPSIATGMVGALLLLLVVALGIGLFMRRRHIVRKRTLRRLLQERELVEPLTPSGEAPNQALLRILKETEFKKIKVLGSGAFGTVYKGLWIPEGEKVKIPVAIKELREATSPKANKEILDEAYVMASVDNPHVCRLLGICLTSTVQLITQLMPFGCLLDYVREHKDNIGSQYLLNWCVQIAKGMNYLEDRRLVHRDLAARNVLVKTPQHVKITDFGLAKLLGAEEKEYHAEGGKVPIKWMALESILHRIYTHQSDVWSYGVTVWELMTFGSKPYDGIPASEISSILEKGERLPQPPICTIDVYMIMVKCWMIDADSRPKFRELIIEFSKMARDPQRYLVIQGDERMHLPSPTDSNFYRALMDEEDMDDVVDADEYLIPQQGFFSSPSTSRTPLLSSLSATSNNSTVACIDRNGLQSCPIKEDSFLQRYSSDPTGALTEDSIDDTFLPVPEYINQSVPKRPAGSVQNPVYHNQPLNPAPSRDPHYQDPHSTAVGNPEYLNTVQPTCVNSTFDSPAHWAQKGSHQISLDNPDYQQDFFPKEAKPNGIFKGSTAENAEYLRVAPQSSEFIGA
Chain of Vascular endothelial growth factor receptor 2 (P35968 whole entry): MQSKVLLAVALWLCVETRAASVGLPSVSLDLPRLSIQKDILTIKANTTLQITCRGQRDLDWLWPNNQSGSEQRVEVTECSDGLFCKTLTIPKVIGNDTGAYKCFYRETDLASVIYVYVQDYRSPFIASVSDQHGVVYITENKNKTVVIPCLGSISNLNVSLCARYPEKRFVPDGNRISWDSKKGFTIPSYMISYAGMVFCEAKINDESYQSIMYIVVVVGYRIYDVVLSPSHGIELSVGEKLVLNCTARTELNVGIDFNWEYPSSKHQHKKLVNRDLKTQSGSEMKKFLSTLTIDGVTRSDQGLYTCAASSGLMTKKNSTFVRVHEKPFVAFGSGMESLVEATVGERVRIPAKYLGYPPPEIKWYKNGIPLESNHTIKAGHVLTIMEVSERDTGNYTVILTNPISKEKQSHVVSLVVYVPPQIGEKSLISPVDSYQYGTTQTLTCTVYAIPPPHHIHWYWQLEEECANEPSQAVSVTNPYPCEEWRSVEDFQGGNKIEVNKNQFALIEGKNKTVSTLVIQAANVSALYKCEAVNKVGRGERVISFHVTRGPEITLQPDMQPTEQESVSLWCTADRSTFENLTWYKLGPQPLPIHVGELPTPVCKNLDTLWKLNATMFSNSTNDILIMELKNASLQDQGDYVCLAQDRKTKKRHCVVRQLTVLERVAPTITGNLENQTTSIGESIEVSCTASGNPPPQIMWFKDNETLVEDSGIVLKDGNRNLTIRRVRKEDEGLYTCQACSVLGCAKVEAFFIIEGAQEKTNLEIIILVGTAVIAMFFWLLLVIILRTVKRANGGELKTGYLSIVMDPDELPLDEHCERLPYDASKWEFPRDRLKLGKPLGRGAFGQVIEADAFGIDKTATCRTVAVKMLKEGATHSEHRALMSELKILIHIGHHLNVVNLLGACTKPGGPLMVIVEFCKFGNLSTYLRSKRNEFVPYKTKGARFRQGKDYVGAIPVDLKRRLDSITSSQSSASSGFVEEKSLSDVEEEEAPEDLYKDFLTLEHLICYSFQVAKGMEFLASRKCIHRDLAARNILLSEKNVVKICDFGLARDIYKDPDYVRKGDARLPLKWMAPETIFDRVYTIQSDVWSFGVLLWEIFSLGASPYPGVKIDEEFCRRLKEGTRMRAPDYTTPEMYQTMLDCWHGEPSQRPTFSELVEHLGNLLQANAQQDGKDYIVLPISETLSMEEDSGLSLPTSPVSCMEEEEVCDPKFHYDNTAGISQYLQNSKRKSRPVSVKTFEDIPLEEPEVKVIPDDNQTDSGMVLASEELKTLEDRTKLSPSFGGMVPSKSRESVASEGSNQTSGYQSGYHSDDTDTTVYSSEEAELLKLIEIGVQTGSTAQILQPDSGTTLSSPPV
Chain of Indoleamine 2,3-dioxygenase 1 (P14902 whole entry): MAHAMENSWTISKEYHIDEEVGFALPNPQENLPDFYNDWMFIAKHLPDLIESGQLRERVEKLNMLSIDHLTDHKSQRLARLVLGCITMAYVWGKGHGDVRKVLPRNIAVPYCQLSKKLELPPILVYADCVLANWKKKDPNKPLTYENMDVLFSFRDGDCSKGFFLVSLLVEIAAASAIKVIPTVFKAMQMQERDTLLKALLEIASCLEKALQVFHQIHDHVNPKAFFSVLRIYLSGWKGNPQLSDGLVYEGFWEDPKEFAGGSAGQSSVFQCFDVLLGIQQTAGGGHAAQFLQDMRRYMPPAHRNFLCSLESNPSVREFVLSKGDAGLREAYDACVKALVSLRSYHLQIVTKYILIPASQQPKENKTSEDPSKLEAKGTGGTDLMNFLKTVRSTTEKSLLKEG
Chain of Ribosomal protein S6 kinase beta-1 (P23443 whole entry): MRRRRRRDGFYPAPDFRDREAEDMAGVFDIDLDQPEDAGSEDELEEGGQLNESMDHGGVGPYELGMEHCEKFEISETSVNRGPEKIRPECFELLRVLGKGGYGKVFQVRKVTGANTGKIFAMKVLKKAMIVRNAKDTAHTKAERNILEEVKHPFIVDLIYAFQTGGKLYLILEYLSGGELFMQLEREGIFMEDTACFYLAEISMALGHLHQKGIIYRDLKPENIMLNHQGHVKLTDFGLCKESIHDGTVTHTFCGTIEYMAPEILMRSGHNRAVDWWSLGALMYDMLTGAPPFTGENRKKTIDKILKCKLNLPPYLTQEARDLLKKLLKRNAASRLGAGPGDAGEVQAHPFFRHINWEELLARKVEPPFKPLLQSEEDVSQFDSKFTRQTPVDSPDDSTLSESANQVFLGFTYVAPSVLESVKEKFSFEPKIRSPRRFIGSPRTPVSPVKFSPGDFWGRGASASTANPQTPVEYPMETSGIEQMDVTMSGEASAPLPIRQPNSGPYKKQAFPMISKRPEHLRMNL
Chain of Lactate dehydrogenase (Q0PJ46 whole entry): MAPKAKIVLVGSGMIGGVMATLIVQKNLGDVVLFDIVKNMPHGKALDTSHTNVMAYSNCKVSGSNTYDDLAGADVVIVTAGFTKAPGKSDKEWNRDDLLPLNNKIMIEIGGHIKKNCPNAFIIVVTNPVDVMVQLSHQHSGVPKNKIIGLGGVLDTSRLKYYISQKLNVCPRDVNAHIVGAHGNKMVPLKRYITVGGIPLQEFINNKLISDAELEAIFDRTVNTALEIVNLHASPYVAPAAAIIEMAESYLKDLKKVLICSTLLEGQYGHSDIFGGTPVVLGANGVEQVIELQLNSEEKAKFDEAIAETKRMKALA

CCn1c(-c2nonc2N)nc2c(C#CC(C)(C)O)ncc(OC[C@H]3CCCNC3)c21 [GSK-690693]
Activity [1]: 58% | Activity [2]: 50% | Activity [3]: 65% | Activity [4]: 5% | Activity [5]: 27% | Activity [6]: 46%

Cc1ccc2c(c1)nc(-c1nonc1N)n2C1CCC1
pIC50 [7]: 7.72

O=C(O)c1nonc1O
pIC50 [8]: 4.14 | Cmax [9]: 138 µM | pKi [10]: 6.68 | Activity [11]: 100% | pEC50 [12]: 2.89 | half-life [13]: 1.3 h | half-life [14]: 1.3 h | pIC50 [15]: 6.19 | pEC50 [16]: 4.73 | pEC50 [17]: 4.65 | EC90 [17]: 75.9 µM | Activity [18]: 41% | Cmax [19]: 196 µM | pEC50 [20]: 3.19

O=C(NCCNc1nonc1/C(=N/O)Nc1ccc(F)c(Br)c1)c1cccc(N(CCCl)CCCl)c1
pEC50 [21]: 6.57 | pEC50 [22]: 4.74 | pIC50 [23]: 6.89 | pEC50 [24]: 5.29 | Activity [25]: 58% and 48%

Cc1ccc(/C=N/NC(=O)c2nnn(-c3nonc3N)c2-c2ccc([N+](=O)[O-])cc2)cc1
pEC50 [26]: 4.82

N=C(N/C(=N/O)c1nonc1N)c1ccccc1N
Activity [27]: 50% | MIC [28]: 50 µM | Activity [29]: 48% | MIC [30]: 250 µM (≈ 65.3 µg/mL) | Activity [31]: 77% | MIC [32]: 200 µM | Activity [33]: 73% | MIC [34]: 250 µM (≈ 65.3 µg/mL)

Nc1ccccc1NC(=O)c1ccc(C(=O)NCCNc2nonc2/C(=N/O)Nc2ccc(F)c(Br)c2)cc1
Activity [35]: 56% and 54% | pEC50 [36]: 6.77 | pEC50 [22]: 4.74 | pEC50 [24]: 5.29 | half-life [37]: 3.4 h | IC50 [38]: 0.067 µM

Oc1nc2nonc2nc1Nc1ccc(OC(F)(F)F)cc1
half-life [39]: 5.7 h | logP [40]: 5.2 | pEC50 [41]: 5.37 | solubility [42]: > 500 µM

NS(=O)(=O)CC(=O)NCCSc1nonc1/C(=N/O)Nc1cccc(Cl)c1
pEC50 [43]: 8.00 | Activity [44]: 50% | half-life [45]: > 3 h

COc1ccc(C[S+]([O-])c2ccc(N)c3nonc23)cc1 (stereo not drawn)
MIC [46]: 2.9 µM | MIC [47]: 53 µM | MIC [48]: 187 µM | MIC [49]: 105 µM | Activity [50]: 60%

NS(=O)(=O)N1CCC[C@@H](CNc2nonc2/C(=N/O)Nc2ccc(F)c(Br)c2)C1
pEC50 [51]: 7.16 | half-life [52]: 3.8 h | Activity [53]: 25%

Nc1nonc1-n1nnc(-c2nnc(-c3ccncc3)[nH]2)c1CN1CCCCC1
pIC50 [54]: < 3.60 | pEC50 [55]: 5.73

O=C(O)c1cc(-c2ccc(/C=N/Nc3nc4nonc4nc3Nc3ccccc3)o2)ccc1Cl
pIC50 [56]: > 6.00 | pIC50 [57]: > 6.00 | pIC50 [58]: > 6.00 | pIC50 [59]: > 6.00 | pIC50 [60]: > 6.00
